Measurements reported in ChEMBL document CHEMBL3763052, “Novel N-acyl-carbazole derivatives as 5-HT7R antagonists” (Eur J Med Chem, 2016).

How the values were obtained:
[1] = Mean residential time in Sprague-Dawley rat at 10 mg/kg, iv by LC-MS/MS analysis; format: ADME, organism-based; details: in vivo
[2] = biological target: T1, 5-hydroxytryptamine receptor 7 (Homo sapiens, UniProt P34969); test: Displacement of [3H]LSD from 5-HT7 receptor (unknown origin) expressed in CHO-K1 cells by liquid scintillation counting method; format: cell-based
[3] = biological target: T1, 5-hydroxytryptamine receptor 7; test: Binding affinity to recombinant 5-HT7 receptor (unknown origin) after 1.5 hrs by radioligand displacement assay
[4] = biological target: T2, 5-hydroxytryptamine receptor 1A (Homo sapiens, UniProt P08908); test: Binding affinity to recombinant 5-HT1A receptor (unknown origin) after 1.5 hrs by radioligand displacement assay
T2 sequence (P08908 whole entry): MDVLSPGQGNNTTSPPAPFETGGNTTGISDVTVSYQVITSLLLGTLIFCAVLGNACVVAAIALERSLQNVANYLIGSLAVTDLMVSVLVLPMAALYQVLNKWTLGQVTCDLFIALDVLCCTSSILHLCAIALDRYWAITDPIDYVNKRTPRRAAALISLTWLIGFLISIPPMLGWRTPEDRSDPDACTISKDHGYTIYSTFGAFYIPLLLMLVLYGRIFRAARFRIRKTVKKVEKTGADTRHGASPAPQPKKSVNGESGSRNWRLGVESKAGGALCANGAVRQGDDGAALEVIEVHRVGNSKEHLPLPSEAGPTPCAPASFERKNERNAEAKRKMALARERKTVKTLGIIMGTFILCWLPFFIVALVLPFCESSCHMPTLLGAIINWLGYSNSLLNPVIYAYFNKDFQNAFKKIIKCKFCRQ

[5] = biological target: 5-hydroxytryptamine receptor 1B (Homo sapiens, UniProt P28222); test: Binding affinity to recombinant 5-HT1B receptor (unknown origin) after 1.5 hrs by radioligand displacement assay
[6] = biological target: 5-hydroxytryptamine receptor 1D (Homo sapiens, UniProt P28221); test: Binding affinity to recombinant 5-HT1D receptor (unknown origin) after 1.5 hrs by radioligand displacement assay
[7] = biological target: 5-hydroxytryptamine receptor 2A (Homo sapiens, UniProt P28223); test: Binding affinity to recombinant 5-HT2A receptor (unknown origin) after 1.5 hrs by radioligand displacement assay
[8] = biological target: 5-hydroxytryptamine receptor 2B (Homo sapiens, UniProt P41595); test: Binding affinity to recombinant 5-HT2B receptor (unknown origin) after 1.5 hrs by radioligand displacement assay
[9] = biological target: T3, 5-hydroxytryptamine receptor 2C (Homo sapiens, UniProt P28335); test: Binding affinity to recombinant 5-HT2C receptor (unknown origin) after 1.5 hrs by radioligand displacement assay
T3 sequence (P28335 whole entry): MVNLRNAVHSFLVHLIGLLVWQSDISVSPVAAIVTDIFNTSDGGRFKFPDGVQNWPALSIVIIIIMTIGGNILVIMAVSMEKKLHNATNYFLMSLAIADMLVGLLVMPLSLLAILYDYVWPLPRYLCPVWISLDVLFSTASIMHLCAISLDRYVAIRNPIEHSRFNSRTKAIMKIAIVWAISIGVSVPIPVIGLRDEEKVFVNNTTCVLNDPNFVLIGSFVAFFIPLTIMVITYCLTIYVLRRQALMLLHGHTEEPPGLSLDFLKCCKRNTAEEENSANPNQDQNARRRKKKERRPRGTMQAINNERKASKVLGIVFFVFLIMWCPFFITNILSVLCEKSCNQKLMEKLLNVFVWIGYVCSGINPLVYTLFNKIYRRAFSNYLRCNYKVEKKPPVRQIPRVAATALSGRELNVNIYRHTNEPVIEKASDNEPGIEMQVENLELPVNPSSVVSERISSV

[10] = biological target: T4, 5-hydroxytryptamine receptor 3A (Homo sapiens) (UniProt P46098); test: Binding affinity to recombinant 5-HT3 receptor (unknown origin) at 10 uM after 1.5 hrs by radioligand displacement assay
T4 sequence (whole entry): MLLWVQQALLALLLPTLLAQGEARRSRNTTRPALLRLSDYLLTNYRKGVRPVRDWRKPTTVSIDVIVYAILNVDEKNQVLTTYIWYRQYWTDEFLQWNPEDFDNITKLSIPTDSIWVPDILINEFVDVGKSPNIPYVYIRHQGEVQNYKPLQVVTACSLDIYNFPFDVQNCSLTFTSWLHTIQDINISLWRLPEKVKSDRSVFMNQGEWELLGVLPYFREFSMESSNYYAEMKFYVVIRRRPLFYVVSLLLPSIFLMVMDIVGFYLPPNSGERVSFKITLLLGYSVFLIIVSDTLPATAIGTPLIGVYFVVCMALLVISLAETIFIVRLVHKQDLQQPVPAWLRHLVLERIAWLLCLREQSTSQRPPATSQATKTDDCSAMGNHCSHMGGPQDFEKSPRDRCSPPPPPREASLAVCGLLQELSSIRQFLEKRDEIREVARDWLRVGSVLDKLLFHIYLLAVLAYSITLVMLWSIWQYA

[11] = biological target: 5-hydroxytryptamine receptor 5A (Homo sapiens, UniProt P47898); test: Binding affinity to recombinant 5-HT5 receptor (unknown origin) at 10 uM after 1.5 hrs by radioligand displacement assay
[12] = biological target: 5-hydroxytryptamine receptor 6 (Homo sapiens, UniProt P50406); test: Binding affinity to recombinant 5-HT6 receptor (unknown origin) at 10 uM after 1.5 hrs by radioligand displacement assay
[13] = biological target: T1, 5-hydroxytryptamine receptor 7; test: Antagonist activity at human 5-HT7 receptor expressed in HEK293 cells assessed as inhibition of 5-HT-induced cAMP production at 10 uM pretreated for 10 mins followed by stimulation with 5-HT for 30 mins by fluorescence analysis; format: functional, cell-based
[14] = biological target: T1, 5-hydroxytryptamine receptor 7; test: Agonist activity at human 5-HT7 receptor expressed in HEK293 cells assessed as increase in cAMP level at 12.5 uM by fluorescence analysis relative to 5-CT; format: functional, cell-based
[15] = Metabolic stability in human liver microsomes assessed as compound remaining at 1 uM after 30 mins by LC-MS/MS in presence of NADPH; format: ADME; details: read-out: Stability
[16] = AUC (0 to infinity) in Sprague-Dawley rat at 10 mg/kg, iv by LC-MS/MS analysis; format: ADME, organism-based; parameters: dose 10 mg/kg, route intravenous, time infinity; details: in vivo
[17] = AUC (0 to infinity) in Sprague-Dawley rat at 10 mg/kg, po by LC-MS/MS analysis; format: ADME, organism-based; parameters: dose 10 mg/kg, route oral, time infinity; details: in vivo
[18] = AUC (0 to last) in Sprague-Dawley rat at 10 mg/kg, iv by LC-MS/MS analysis; format: ADME, organism-based; parameters: dose 10 mg/kg, time 0 - last, route intravenous; details: in vivo
[19] = AUC (0 to last) in Sprague-Dawley rat at 10 mg/kg, po by LC-MS/MS analysis; format: ADME, organism-based; parameters: dose 10 mg/kg, time 0 - last, route oral; details: in vivo
[20] = Terminal half life in Sprague-Dawley rat at 10 mg/kg, iv by LC-MS/MS analysis; format: ADME, organism-based; details: in vivo, read-out: beta t1/2
[21] = Terminal half life in Sprague-Dawley rat at 10 mg/kg, po by LC-MS/MS analysis; format: ADME, organism-based; details: in vivo, read-out: beta t1/2
[22] = Cmax in Sprague-Dawley rat at 10 mg/kg, po by LC-MS/MS analysis; format: ADME, organism-based; parameters: dose 10 mg/kg, route oral; details: in vivo
[23] = Tmax in Sprague-Dawley rat at 10 mg/kg, po by LC-MS/MS analysis; format: ADME, organism-based; details: in vivo
[24] = Clearance in Sprague-Dawley rat at 10 mg/kg, iv by LC-MS/MS analysis; format: ADME, organism-based; details: in vivo
[25] = Volume of distribution at steady state in Sprague-Dawley rat at 10 mg/kg, iv by LC-MS/MS analysis; format: ADME, organism-based; details: in vivo, read-out: Vdss
[26] = Plasma concentration in Sprague-Dawley rat at 10 mg/kg, iv after 2 hrs by LC-MS/MS analysis; format: ADME, organism-based
[27] = Plasma concentration in Sprague-Dawley rat at 10 mg/kg, po after 2 hrs by LC-MS/MS analysis; format: ADME, organism-based
[28] = Drug uptake in Sprague-Dawley rat brain at 10 mg/kg, iv after 2 hrs by LC-MS/MS analysis; format: ADME, organism-based; details: read-out: Drug uptake
[29] = Drug uptake in Sprague-Dawley rat brain at 10 mg/kg, po after 2 hrs by LC-MS/MS analysis; format: ADME, organism-based; details: read-out: Drug uptake
Mus musculus = test: Antidepressant activity in ICR mouse assessed as immobility time at 30 mg/kg, iv administered 30 mins before testing by forced swim test (reference value: 159.1 sec); format: functional
[30] = Ratio of drug uptake in brain to plasma of Sprague-Dawley rat at 10 mg/kg, iv after 2 hrs by LC-MS/MS analysis; format: ADME, organism-based; details: read-out: BPR
[31] = Oral bioavailability in Sprague-Dawley rat at 10 mg/kg by LC-MS/MS analysis; format: ADME, organism-based; details: in vivo
[32] = Ratio of drug uptake in brain to plasma of Sprague-Dawley rat at 10 mg/kg, po after 2 hrs by LC-MS/MS analysis; format: ADME, organism-based; details: read-out: BPR

T1 sequence (P34969 whole entry): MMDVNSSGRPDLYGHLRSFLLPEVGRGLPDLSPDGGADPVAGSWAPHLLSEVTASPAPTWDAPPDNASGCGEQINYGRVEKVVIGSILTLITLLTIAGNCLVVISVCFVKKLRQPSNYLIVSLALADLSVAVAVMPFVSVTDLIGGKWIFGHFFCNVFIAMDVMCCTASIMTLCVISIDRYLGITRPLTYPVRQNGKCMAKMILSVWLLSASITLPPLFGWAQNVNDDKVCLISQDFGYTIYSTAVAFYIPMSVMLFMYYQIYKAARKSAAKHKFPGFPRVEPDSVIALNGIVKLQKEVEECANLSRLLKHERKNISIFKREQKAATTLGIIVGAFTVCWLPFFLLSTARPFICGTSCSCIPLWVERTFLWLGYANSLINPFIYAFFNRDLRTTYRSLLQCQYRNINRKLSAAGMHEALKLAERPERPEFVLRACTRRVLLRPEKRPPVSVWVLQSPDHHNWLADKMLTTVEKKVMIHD
5-hydroxytryptamine receptor 1D, sequence (P28221 whole entry): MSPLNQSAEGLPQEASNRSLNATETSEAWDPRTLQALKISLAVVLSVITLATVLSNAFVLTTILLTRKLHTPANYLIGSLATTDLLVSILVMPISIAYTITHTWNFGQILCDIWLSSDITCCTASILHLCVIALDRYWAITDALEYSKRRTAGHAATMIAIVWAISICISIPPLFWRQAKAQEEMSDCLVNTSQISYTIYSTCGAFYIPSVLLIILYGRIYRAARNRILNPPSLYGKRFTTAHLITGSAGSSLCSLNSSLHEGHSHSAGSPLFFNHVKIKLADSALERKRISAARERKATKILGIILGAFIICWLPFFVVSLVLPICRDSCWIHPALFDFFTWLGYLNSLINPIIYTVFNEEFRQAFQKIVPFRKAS
5-hydroxytryptamine receptor 5A, sequence (P47898 whole entry): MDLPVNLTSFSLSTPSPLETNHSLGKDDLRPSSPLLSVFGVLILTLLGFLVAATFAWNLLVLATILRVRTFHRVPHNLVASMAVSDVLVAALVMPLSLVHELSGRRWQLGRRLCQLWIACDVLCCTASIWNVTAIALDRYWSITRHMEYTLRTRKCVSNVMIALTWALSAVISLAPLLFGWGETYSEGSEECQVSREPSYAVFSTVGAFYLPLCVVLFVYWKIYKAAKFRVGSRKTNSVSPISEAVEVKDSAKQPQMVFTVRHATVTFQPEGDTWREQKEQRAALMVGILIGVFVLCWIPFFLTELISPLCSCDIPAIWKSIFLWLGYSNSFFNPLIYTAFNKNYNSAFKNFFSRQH
5-hydroxytryptamine receptor 2A, sequence (P28223 whole entry): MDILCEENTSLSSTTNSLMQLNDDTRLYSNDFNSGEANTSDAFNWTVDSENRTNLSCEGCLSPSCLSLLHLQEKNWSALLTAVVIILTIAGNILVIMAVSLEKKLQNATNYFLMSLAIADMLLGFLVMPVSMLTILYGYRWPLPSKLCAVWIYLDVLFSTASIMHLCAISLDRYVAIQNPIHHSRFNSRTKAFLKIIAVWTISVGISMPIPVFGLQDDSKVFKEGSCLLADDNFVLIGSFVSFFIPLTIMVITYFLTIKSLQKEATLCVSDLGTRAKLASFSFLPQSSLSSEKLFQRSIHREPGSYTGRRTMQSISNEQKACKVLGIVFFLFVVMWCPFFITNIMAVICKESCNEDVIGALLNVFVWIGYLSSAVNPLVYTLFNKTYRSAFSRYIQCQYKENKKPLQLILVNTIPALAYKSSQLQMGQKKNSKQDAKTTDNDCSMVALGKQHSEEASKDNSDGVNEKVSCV
5-hydroxytryptamine receptor 1B, sequence (P28222 whole entry): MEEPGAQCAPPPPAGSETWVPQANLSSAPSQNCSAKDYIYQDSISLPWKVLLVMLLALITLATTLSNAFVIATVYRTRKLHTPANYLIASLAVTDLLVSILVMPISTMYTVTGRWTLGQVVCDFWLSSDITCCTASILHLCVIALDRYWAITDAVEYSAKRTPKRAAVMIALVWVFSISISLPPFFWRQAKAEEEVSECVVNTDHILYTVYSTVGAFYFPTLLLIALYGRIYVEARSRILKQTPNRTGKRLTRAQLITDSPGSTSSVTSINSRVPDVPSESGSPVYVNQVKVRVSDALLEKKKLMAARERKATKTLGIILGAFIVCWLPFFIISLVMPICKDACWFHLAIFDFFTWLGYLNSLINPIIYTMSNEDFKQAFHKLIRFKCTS
5-hydroxytryptamine receptor 2B, sequence (P41595 whole entry): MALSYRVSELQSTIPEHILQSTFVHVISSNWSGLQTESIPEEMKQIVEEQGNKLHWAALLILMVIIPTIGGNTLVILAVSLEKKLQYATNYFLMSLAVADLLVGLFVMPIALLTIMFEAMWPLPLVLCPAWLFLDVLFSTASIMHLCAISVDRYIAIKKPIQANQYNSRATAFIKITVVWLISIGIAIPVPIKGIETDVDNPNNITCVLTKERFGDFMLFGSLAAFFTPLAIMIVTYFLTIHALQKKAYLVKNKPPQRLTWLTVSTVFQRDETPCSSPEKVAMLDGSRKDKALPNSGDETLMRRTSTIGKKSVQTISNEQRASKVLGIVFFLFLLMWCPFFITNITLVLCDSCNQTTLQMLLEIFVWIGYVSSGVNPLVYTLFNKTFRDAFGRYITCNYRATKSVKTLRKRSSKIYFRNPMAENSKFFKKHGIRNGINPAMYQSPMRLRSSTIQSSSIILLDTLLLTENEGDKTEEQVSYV
5-hydroxytryptamine receptor 6, sequence (P50406 whole entry): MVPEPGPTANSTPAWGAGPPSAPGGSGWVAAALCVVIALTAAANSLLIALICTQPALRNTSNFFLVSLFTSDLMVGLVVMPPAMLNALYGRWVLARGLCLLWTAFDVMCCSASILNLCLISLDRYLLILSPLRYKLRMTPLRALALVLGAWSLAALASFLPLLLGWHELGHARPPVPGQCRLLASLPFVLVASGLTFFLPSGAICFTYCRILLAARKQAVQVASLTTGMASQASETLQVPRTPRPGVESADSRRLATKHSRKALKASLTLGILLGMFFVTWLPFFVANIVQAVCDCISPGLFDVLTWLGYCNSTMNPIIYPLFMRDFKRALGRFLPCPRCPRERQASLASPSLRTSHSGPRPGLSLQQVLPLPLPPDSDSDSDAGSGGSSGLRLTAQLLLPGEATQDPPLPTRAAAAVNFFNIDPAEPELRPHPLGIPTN

MRT [1]: 2.81 h | Ki [2]: 74 nM | Ki [3]: 74 nM | Ki [4]: 549 nM | Ki [5]: 845 nM | Ki [6]: 1280 nM | Ki [7]: 1260 nM | Ki [8]: 419 nM | Ki [9]: 588 nM | inhibition [10]: 18% | inhibition [11]: 34% | inhibition [12]: 31% | inhibition [13]: 75.2% | Activity [14]: 22.2% | remaining at 0.5 h, 1 µM [15]: 50.8% | AUC(0-inf) [16]: 1470 ng·h/mL | AUC(0-inf) [17]: 998 ng·h/mL | AUC(0-t) [18]: 1170 ng·h/mL | AUC(0-t) [19]: 561 ng·h/mL | half-life [20]: 3.32 h | half-life [21]: 6.62 h | Cmax [22]: 160 ng/mL | Tmax [23]: 3.57 h | clearance [24]: 114 mL/min/kg | Vd [25]: 33.5 L/kg | concentration at 2 h [26]: 210 ng/mL | concentration at 2 h [27]: 70 ng/mL | concentration at 2 h [28]: 268 ng/mL | concentration at 2 h [29]: 1530 ng/mL | Kp at 2 h [30]: 1.23 | bioavailability [31]: 67.8% | Kp at 2 h [32]: 25.5
SMILES: COc1ccccc1N1CCN(CCCCCC(=O)n2c3ccccc3c3ccccc32)CC1.Cl
Time (Mus musculus): 118.9 s
